Results published in patent publication US20210238173A1, “MITOGEN-ACTIVATED PROTEIN KINASE KINASE 7 INHIBITORS” (Yeda Research and Development Co. Ltd., priority 2018, published 2021).

Tests used:
[1] = Metabolic stability in monkey liver microsomes; format: in vitro ADME
Excerpt: (§1) A reference compound, REF1250, was used in this study: […]

[2] = Metabolic stability in rat liver microsomes; format: in vitro ADME; conditions: for half-life: rat, liver microsomes
Excerpt: as §1

[3] = Metabolic stability in human liver microsomes; format: in vitro ADME; conditions: for half-life: human, liver microsomes
Excerpt: as §1

[4] = target: T1, MKK4 (Homo sapiens, UniProt P45985); experiment: In vitro activity assay for MKK4 (Nanosyn); format: biochemical
T1 construct: purchased Nanosyn (contract assay)
T1 sequence (P45985 1-399): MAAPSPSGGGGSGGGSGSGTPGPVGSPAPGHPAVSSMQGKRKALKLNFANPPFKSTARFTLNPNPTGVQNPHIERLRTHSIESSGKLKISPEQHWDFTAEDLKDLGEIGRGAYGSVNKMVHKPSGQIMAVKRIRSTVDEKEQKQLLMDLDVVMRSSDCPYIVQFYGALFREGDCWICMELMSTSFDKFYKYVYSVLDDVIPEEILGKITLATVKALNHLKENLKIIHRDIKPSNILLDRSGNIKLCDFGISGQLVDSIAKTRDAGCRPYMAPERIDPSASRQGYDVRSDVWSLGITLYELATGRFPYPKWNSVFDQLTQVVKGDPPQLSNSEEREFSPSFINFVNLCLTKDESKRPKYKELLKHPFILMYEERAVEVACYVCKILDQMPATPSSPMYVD
Description: In Vitro Activity Assays for MKK7 or MKK4 (Carried by Nanosyn):
Exemplary test compounds, according to some embodiments of the present invention, were diluted in DMSO to a final concentration that ranged from 10 μM to 0.0565 nM, while final concentration of DMSO in all assays was kept at 1%. Reference compound, Staurosporine, was tested in a similar manner. […] After incubation, activity of now activated JNK1 was tested in the presence of 30 μM ATP ATP for 17 h (MKK7) or 4 h (MKK4).

[5] = target: T2, MKK7 (Homo sapiens, UniProt O14733); experiment: Intact protein mass spectrometry covalent labeling; format: binding; conditions: 4° C., molecule 20 μM, protein 10 μM
T2 construct: MKK7 isoform 1 (103-426 residues) with a C-terminal 6-His tag; 6-His (C); made in house; host or cells: E. coli Rosetta2 (DE3) pLysS
T2 sequence (O14733 103-426 isoform O14733-3): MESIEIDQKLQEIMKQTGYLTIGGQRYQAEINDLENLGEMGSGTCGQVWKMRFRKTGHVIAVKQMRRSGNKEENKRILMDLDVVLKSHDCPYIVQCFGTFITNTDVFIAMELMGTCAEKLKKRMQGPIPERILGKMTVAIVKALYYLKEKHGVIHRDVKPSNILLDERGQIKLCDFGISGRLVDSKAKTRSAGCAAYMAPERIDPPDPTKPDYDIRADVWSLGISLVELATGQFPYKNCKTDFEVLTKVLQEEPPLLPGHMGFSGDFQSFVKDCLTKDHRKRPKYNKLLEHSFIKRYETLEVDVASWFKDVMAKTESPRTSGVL
Description: Intact Protein Mass Spectrometry:
Samples were injected after indicated incubation times into LC/MS (Waters ACUITY UPLC class H), in positive ion mode using electrospray ionization. C4 column (300 Å, 1.7 μM, […]×100 mm) was held at 40° C., and the autosampler at 10° C. Desolvation temperature was 500° C. with flow rate of 1000 liter/hour. The voltage used were 0.69 kV for the capillary and 46 V for the cone. Spectra were deconvoluted using MaxEnt1 software.
After 1 hour or 16 hours incubation at 4° C.

[6] = test system: pJNK in 3T3 WT cells; experiment: In-cell western (ICW) pJNK inhibition in 3T3 WT; format: cell-based; conditions: 3T3 WT, sorbitol stimulation
Description: HEK293, Beas2B and 3T3 cells were plated 24 hours before procedure on 384 well clear bottom black flat plates (Corning) pre-coated with Fibronectin (Sigma) diluted in PBS to a concentration of 5 μg/ml 45 minutes prior to cells introduction. Cells were plated using Multidrop™ Combi reagent dispenser (Thermo Fisher Scientific). Compound, reagents and antibody dispensing as well as washes were performed with a CyBio liquid handler (Analytik). Cells were pre-incubated with a small molecule or up to 1% DMSO for 2 h before fixation. HEK293, 3T3 or Beas2B cells were treated with 0.6M/0.2M/0.2M D-Sorbitol/PBS (Sigma) for 20/40/40 min. respectively, before fixation. Media was removed and wells were immediately fixed with 150 μl per well of 3.7% formaldehyde/PBS fixing solution for 20 min. Formaldehyde was then aspired and cells were permeabilized with 150 μl of 0.5% Triton x-100/PBS solution for 10 min. After aspiration cells were washed with ice-cold methanol and stored at −20° C., for 10 min. Methanol was aspired and cells were blocked with 150 μl blocking buffer (LICOR) for 90 min. Primary antibody Phospho-SAPK/JNK T183/Y185 (CST; 9251S) was diluted 1:1000 in blocking buffer and was applied 50 μl per well, except control wells to which only blocking buffer was applied, O.N. (16 h) at 4° C. with mild shaking. Primary antibody was aspired, wells were washed with 150 μl 0.1% Tween20/PBS (Sigma) washing solution three times for 7 min. IRDye® 800CW Goat anti-Rabbit IgG Secondary antibody (LICOR) was then diluted 1:1200 in blocking buffer with 50 μl applied per well on control wells only (no CellTag control), then CellTag700 (1:2000) was added to the solution and 50 μl were added to all experiment wells, for 1 h at room temperature. Wells were aspired and washed again with 150 μl 0.1% Tween20/PBS (Sigma) washing solution three times for 7 min. plate was dried and scanned with Odyssey CLx imaging system at 700 nm and 800 nm (Licor). Wells signals were analyzed with Odyssey software. The signal was normalized by the CellTag700 signal.
To rapidly assess the cellular activity (EC50) with full dose response curves of the MKK7 covalent inhibitors, according to some embodiments of the present invention, an in-cell western assay was adapted to a 384 well plate format over traditional western blot, and monitored phospho-JNK (pJNK) levels in response to osmotic shock. We first characterized the dynamics of pJNK in response to sorbitol. Sufficient dynamic range for pJNK is achieved at 20 minutes in HEK293 cells and at 40 minutes in 3T3 and Beas2B cells. The compound's activity was assessed by pre-treating cells with either compound or DMSO for 2 hours, followed by Sorbitol stimulation. The response of pJNK, and its substrates, pc-Jun and pATF2, was measured, as well as pP38, which is a substrate of MKK4 but not MKK7, and pERK in HEK293 cells, and the results are presented in Table 5 below.
Wildtype 3T3 cells, 3T3 MKK7 double knock-out (MKK7^−/−) cells and MKK4/7 double knockouts (MKK4/7^−/−) were used to validate on target activity of the MKK7 covalent inhibitors presented herein.

[7] = Metabolic stability in mouse liver microsomes; format: in vitro ADME; conditions: for half-life: mouse, liver microsomes
Excerpt: as §1

Row | % remaining @ 40 min [1] [%] | half-life [1] [min] | % remaining @ 40 min [2] [%] | half-life [2] [min] | % remaining @ 40 min [3] [%] | half-life [3] [min] | IC50 [4] [µM] | covalent labeling ([5]; 1 hour) [%] | covalent labeling ([5]; 16 hours) [%] | % remaining @ 40 min [7] [%] | half-life [7] [min] | SMILES | EC50 ([6]; ICW, 2 h pre-incubation) [µM] | IC50 [6] [µM]
1 | 0 | < 5 | 0 | < 5 | 0 | < 5 | 4.13 | 65.16 | 95.15 | 0 | < 5 | C=CC(=O)Nc1cccc(-c2n[nH]c3c2CCCC3)c1 [GO4] | > 10 | 18.2
2 | 0 | < 5 | 0 | < 5 | 0 | < 5 | 4.15 | 78.14 | 96.29 | 0 | < 5 | C=CC(=O)Nc1cccc(-c2n[nH]c3ccccc23)c1 [GO32] | – | 5.15
3 | 0 | < 5 | 1 | 6 | 0 | < 5 | 7.81 | 59.58 | 92.87 | 0 | < 5 | C=CC(=O)Nc1cccc(-c2n[nH]c3cc(C)ccc23)c1 [GO80] | – | 4.05
